In the assay the test system is PMA-induced oedema in mouse ear. Kind of assay: Acute contact dermatitis: inhibition of PMA/TPA-induced oedema in mouse ear. The assay is classed as in vivo. The settings on record: 6 h, CD1 mice, 500 μg/ear topical in TPDS, 30 minutes before TPA 0.01% in acetone, ear weight difference after six hours vs TPA only. The protocol:
The antiinflammatory activity has been evaluated as inhibition of PMA-induced oedema in mouse ear (Phorbol Myristate Acetate).
A) Acute contact dermatitis.
Groups of 5 CD1 mice (18-24 g) were used.
All the macrolide derivatives were dissolved in the Trans-phase Delivery System (TPDS) vehicle containing 10% benzyl alcohol, 40% acetone and 50% isopropanol.
15 microliters of the compounds (500 μg/ear), dissolved in TPDS, were applied topically onto the inner surface of an ear; after 30 minutes 12 microliters of a solution of acetate of tetradecanoyl-phorbol (TPA) with the concentration of 0.01% dissolved in acetone were applied onto the same area.
After six hours the animals were sacrified by inhalation of CO2.
The oedema level was calculated by detracting the weight of a defined portion of auricular ala of the not treated ear to the one of the treated controlateral ear. To determine the oedema remission level the weight difference of the groups treated with TPA+macrolides was compared with the ones of those treated with TPA only. The activity of the macrolides was measured by using the modified method of Zunic et coll. (1998): MDL (Lysyl) GDP, a non-toxil muramyl dipeptide derivative inhibits, cytokine production by activated macrophages and protects mice from phorbol ester-and oxazolone-induced inflammation (J. Invest Dermatol., 111(1), 77-82).
The data relating to erythromycin concern the treatment in single dose with 500 μg/ear.
On to `CC[C@H]1OC(=O)[C@H](C)[C@@H](O)[C@H](C)[C@@H](O[C@@H]2O[C@H](C)C[C@H](N(C)C(=O)Cc3ccccc3)[C@H]2O)C(C)(O)C[C@@H](C)[C@H](O)[C@H](C)[C@@H](O)[C@]1(C)O` (stereo partly drawn) [Compound 2], for which the inhibition in vivo – broadly, the share of the control response that was lost under treatment – at 500 µg/ear stood at 88.1%.

In turn, `CC[C@H]1OC(=O)[C@H](C)[C@@H](O)[C@H](C)[C@@H](O[C@@H]2O[C@H](C)C[C@H](N(C)C(=O)COC)[C@H]2O)C(C)(O)C[C@@H](C)/C(=N\O)[C@H](C)[C@@H](O)[C@]1(C)O` (stereo partly drawn) [Compound 19] came in with an inhibition in vivo at 500 µg/ear of 86.1%.

The compound `CC[C@H]1OC(=O)[C@H](C)[C@@H](O)[C@H](C)[C@@H](O[C@@H]2O[C@H](C)C[C@H](N(C)C(=O)c3cccnc3Cl)[C@H]2O)C(C)(O)C[C@@H](C)/C(=N\O)[C@H](C)[C@@H](O)[C@]1(C)O` (stereo partly drawn) [Compound 28] gave an inhibition in vivo at 500 µg/ear of 81.7%.

`CC[C@H]1OC(=O)[C@H](C)[C@@H](O)[C@H](C)[C@@H](O[C@@H]2O[C@H](C)C[C@H](N(C)C(=O)C(C)(C)C)[C@H]2O)C(C)(O)C[C@@H](C)/C(=N\O)[C@H](C)[C@@H](O)[C@]1(C)O` (stereo partly drawn) [Compound 26] gave an inhibition in vivo at 500 µg/ear of 68.6%.

Take `CC[C@H]1OC(=O)[C@H](C)[C@@H](O)[C@H](C)[C@@H](O[C@@H]2O[C@H](C)C[C@H](N(C)S(=O)(=O)c3ccc(C)cc3)[C@H]2O)C(C)(O)C[C@@H](C)[C@H](O)[C@H](C)[C@@H](O)[C@]1(C)O` (stereo partly drawn) [Compound 12]: the inhibition in vivo at 500 µg/ear was found to be 72.2%.

Compound `CC[C@H]1OC(=O)[C@H](C)[C@@H](O[C@H]2C[C@@](C)(OC)[C@@H](O)[C@H](C)O2)[C@H](C)[C@@H](O[C@@H]2O[C@H](C)C[C@H](N(C)C)[C@H]2O)[C@](C)(O)C[C@@H](C)CN(C)[C@H](C)[C@@H](O)[C@]1(C)O` [Azithromycin, reference compound] had an inhibition in vivo at 500 µg/ear of 40%.

For `CC[C@H]1OC(=O)[C@H](C)[C@@H](O)[C@H](C)[C@@H](O[C@@H]2O[C@H](C)C[C@H](N(C)C(=O)c3ccc(F)cc3)[C@H]2O)C(C)(OC)C[C@@H](C)C(=O)[C@H](C)[C@@H](O)[C@]1(C)O` (stereo partly drawn) [Compound 16], the inhibition in vivo at 500 µg/ear was found to be 81.1%.

Compound `CC[C@H]1OC(=O)[C@H](C)[C@@H](O)[C@H](C)[C@@H](O[C@@H]2O[C@H](C)C[C@H](N(C)C(=O)c3cccnc3)[C@H]2O)C(C)(O)C[C@@H](C)[C@H](O)[C@H](C)[C@@H](O)[C@]1(C)O` (stereo partly drawn) [Compound 7] returned an inhibition in vivo at 500 µg/ear of 46.1%.

`CC[C@H]1OC(=O)[C@H](C)[C@@H](O)[C@H](C)[C@@H](O[C@@H]2O[C@H](C)C[C@H](N(C)C(=O)CSc3ccccc3)[C@H]2O)C(C)(O)C[C@@H](C)[C@H](O)[C@H](C)[C@@H](O)[C@]1(C)O` (stereo partly drawn) [Compound 8] registered an inhibition in vivo at 500 µg/ear of 57.6%.

`CC[C@H]1OC(=O)[C@H](C)[C@@H](O)[C@H](C)[C@@H](O[C@@H]2O[C@H](C)C[C@H](N(C)C(=O)C3CCCCC3)[C@H]2O)C(C)(O)C[C@@H](C)[C@H](O)[C@H](C)[C@@H](O)[C@]1(C)O` (stereo partly drawn) [Compound 10] showed an inhibition in vivo at 500 µg/ear of 89.2%.

On to `CC[C@H]1OC(=O)[C@H](C)[C@@H](O)[C@H](C)[C@@H](O[C@@H]2O[C@H](C)C[C@H](N(C)C(=O)Cc3cccs3)[C@H]2O)C(C)(O)C[C@@H](C)/C(=N\O)[C@H](C)[C@@H](O)[C@]1(C)O` (stereo partly drawn) [Compound 25], for which the inhibition in vivo at 500 µg/ear came out at 79.3%.

Regarding `CC[C@H]1OC(=O)[C@H](C)[C@@H](O)[C@H](C)[C@@H](O[C@@H]2O[C@H](C)C[C@H](N(C)C(=O)c3ccccc3)[C@H]2O)C(C)(OC)C[C@@H](C)C(=O)[C@H](C)[C@@H](O)[C@]1(C)O` (stereo partly drawn) [Compound 15], the inhibition in vivo at 500 µg/ear is 74.3%.

Compound `CC[C@H]1OC(=O)[C@H](C)[C@@H](O)[C@H](C)[C@@H](O[C@@H]2O[C@H](C)C[C@H](N(C)C(=O)c3cccs3)[C@H]2O)C(C)(O)C[C@@H](C)/C(=N\O)[C@H](C)[C@@H](O)[C@]1(C)O` (stereo partly drawn) [Compound 23] gave an inhibition in vivo at 500 µg/ear of 86.8%.

For the compound `CC[C@H]1OC(=O)[C@H](C)[C@@H](O)[C@H](C)[C@@H](O[C@@H]2O[C@H](C)C[C@H](N(C)C(=O)c3ccco3)[C@H]2O)C(C)(O)C[C@@H](C)[C@H](O)[C@H](C)[C@@H](O)[C@]1(C)O` (stereo partly drawn) [Compound 4], the inhibition in vivo at 500 µg/ear was determined as 64.4%.

As to `CC[C@H]1OC(=O)[C@H](C)[C@@H](O)[C@H](C)[C@@H](O[C@@H]2O[C@H](C)C[C@H](N(C)C(=O)c3ccc(C)cc3)[C@H]2O)C(C)(O)C[C@@H](C)[C@H](O)[C@H](C)[C@@H](O)[C@]1(C)O` (stereo partly drawn) [Compound 6], the inhibition in vivo at 500 µg/ear came out at 77.8%.

As for `CCCCCCCC(=O)N(C)[C@H]1C[C@@H](C)O[C@@H](O[C@@H]2[C@@H](C)[C@H](O)[C@@H](C)C(=O)O[C@H](CC)[C@@](C)(O)[C@H](O)[C@@H](C)[C@@H](O)[C@H](C)CC2(C)O)[C@@H]1O` (stereo partly drawn) [Compound 9], the inhibition in vivo at 500 µg/ear was determined as 74.2%.

The compound `CC[C@H]1OC(=O)[C@H](C)[C@@H](O)[C@H](C)[C@@H](O[C@@H]2O[C@H](C)C[C@H](N(C)C(=O)c3cccnc3)[C@H]2O)C(C)(O)C[C@@H](C)/C(=N\O)[C@H](C)[C@@H](O)[C@]1(C)O` (stereo partly drawn) [Compound 22] showed an inhibition in vivo at 500 µg/ear of 74.3%.

`CC[C@H]1OC(=O)[C@H](C)[C@@H](O)[C@H](C)[C@@H](O[C@@H]2O[C@H](C)C[C@H](N(C)C(=O)COCc3cc(OC)ccn3)[C@H]2O)C(C)(O)C[C@@H](C)C(O)[C@H](C)[C@@H](O)[C@]1(C)O` (stereo partly drawn) [Compound 1] displayed an inhibition in vivo at 500 µg/ear of 61.5%.

The compound `CCNC(=O)N(C)[C@H]1C[C@@H](C)O[C@@H](O[C@@H]2[C@@H](C)[C@H](O)[C@@H](C)C(=O)O[C@H](CC)[C@@](C)(O)[C@H](O)[C@@H](C)[C@@H](O)[C@H](C)CC2(C)O)[C@@H]1O` (stereo partly drawn) [Compound 13] displayed an inhibition in vivo at 500 µg/ear of 80.3%.

The compound `CC[C@H]1OC(=O)[C@H](C)[C@@H](O)[C@H](C)[C@@H](O[C@@H]2O[C@H](C)C[C@H](N(C)C(=O)c3ccc(OC)cc3)[C@H]2O)C(C)(O)C[C@@H](C)/C(=N\O)[C@H](C)[C@@H](O)[C@]1(C)O` (stereo partly drawn) [Compound 20] displayed an inhibition in vivo at 500 µg/ear of 83.2%.

For the compound `CC[C@H]1OC(=O)[C@H](C)[C@@H](O[C@H]2C[C@@](C)(OC)[C@@H](O)[C@H](C)O2)[C@H](C)[C@@H](O[C@@H]2O[C@H](C)C[C@H](N(C)C)[C@H]2O)[C@](C)(O)C[C@@H](C)C(=O)[C@H](C)[C@@H](O)[C@]1(C)O` [Erythromycin, reference compound], the inhibition in vivo at 500 µg/ear was 42.5%.

Compound `CC[C@H]1OC(=O)[C@H](C)[C@@H](O)[C@H](C)[C@@H](O[C@@H]2O[C@H](C)C[C@H](N(C)C(=O)Nc3ccccc3)[C@H]2O)C(C)(O)C[C@@H](C)[C@H](O)[C@H](C)[C@@H](O)[C@]1(C)O` (stereo partly drawn) [Compound 14] returned an inhibition in vivo at 500 µg/ear of 89.9%.

`CC[C@H]1OC(=O)[C@H](C)[C@@H](O)[C@H](C)[C@@H](O[C@@H]2O[C@H](C)C[C@H](N(C)S(C)(=O)=O)[C@H]2O)C(C)(O)C[C@@H](C)[C@H](O)[C@H](C)[C@@H](O)[C@]1(C)O` (stereo partly drawn) [Compound 11] yielded an inhibition in vivo at 500 µg/ear of 55.3%.

`CC[C@H]1OC(=O)[C@H](C)[C@@H](O)[C@H](C)[C@@H](O[C@@H]2O[C@H](C)C[C@H](N(C)C(=O)Cc3cccs3)[C@H]2O)C(C)(O)C[C@@H](C)[C@H](O)[C@H](C)[C@@H](O)[C@]1(C)O` (stereo partly drawn) [Compound 5] showed an inhibition in vivo at 500 µg/ear of 53.7%.

Take `CC[C@H]1OC(=O)[C@H](C)[C@@H](O)[C@H](C)[C@@H](O[C@@H]2O[C@H](C)C[C@H](N(C)C(=O)Cc3cccs3)[C@H]2O)C(C)(O)C[C@@H](C)/C(=N\OC(=O)Cc2cccs2)[C@H](C)[C@@H](O)[C@]1(C)O` (stereo partly drawn) [Compound 27]: the inhibition in vivo at 500 µg/ear was 61.4%.

The compound `CC[C@H]1OC(=O)[C@H](C)[C@@H](O)[C@H](C)[C@@H](O[C@@H]2O[C@H](C)C[C@H](N(C)C(=O)C(C)(C)C)[C@H]2O)C(C)(O)C[C@@H](C)/C(=N\OC(=O)C(C)(C)C)[C@H](C)[C@@H](O)[C@]1(C)O` (stereo partly drawn) [Compound 17] yielded an inhibition in vivo at 500 µg/ear of 51.2%.

For `CC[C@H]1OC(=O)[C@H](C)[C@@H](O)[C@H](C)[C@@H](O[C@@H]2O[C@H](C)C[C@H](N(C)C(=O)c3ccc(OC)cc3)[C@H]2O)C(C)(O)C[C@@H](C)/C(=N\OC(=O)c2ccc(OC)cc2)[C@H](C)[C@@H](O)[C@]1(C)O` (stereo partly drawn) [Compound 21], the inhibition in vivo at 500 µg/ear turned out to be 53.3%.

Compound `CC[C@H]1OC(=O)[C@H](C)[C@@H](O)[C@H](C)[C@@H](O[C@@H]2O[C@H](C)C[C@H](N(C)C(=O)c3ccccc3)[C@H]2O)C(C)(O)C[C@@H](C)[C@H](O)[C@H](C)[C@@H](O)[C@]1(C)O` (stereo partly drawn) [Compound 3] registered an inhibition in vivo at 500 µg/ear of 89.9%.

`CC[C@H]1OC(=O)[C@H](C)[C@@H](O)[C@H](C)[C@@H](O[C@@H]2O[C@H](C)C[C@H](N(C)C(C)=O)[C@H]2O)C(C)(O)C[C@@H](C)/C(=N\OC(C)=O)[C@H](C)[C@@H](O)[C@]1(C)O` (stereo partly drawn) [Compound 18]: the inhibition in vivo at 500 µg/ear worked out at 49%.

`CC[C@H]1OC(=O)[C@H](C)[C@@H](O)[C@H](C)[C@@H](O[C@@H]2O[C@H](C)C[C@H](N(C)C(=O)c3cccs3)[C@@H]2O)[C@](C)(O)C[C@H](C)/C(=N\OC(=O)c2cccs2)[C@@H](C)[C@H](O)[C@]1(C)O` [Compound 24] yielded an inhibition in vivo at 500 µg/ear of 41.3%.

Source of the values: patent US7507721B2, “Macrolides with antiinflammatory activity” (Zambon Group S.p.A., priority 2004, dated 2009).
